In patent publication US20200010910A1, “Cytotoxic Chemotherapy-Based Predictive Assays for Acute Myeloid Leukemia” (The Regents of The University of California, priority 2017, published 2020):

Assays:
PDX Model BL0645 [1] = test: PDX tumor growth under chemotherapy; type: in vivo, NSG mice; conditions: cisplatin 2 mg/kg IV Q7Dx3, gemcitabine 150 mg/kg IP Q7Dx4
Experimental: (§1) Female NSG mice (5-8 weeks of age, body weight: 20 to 25 g) were obtained from Jackson Laboratories (CA, USA). […] To establish multiple PDXs to allow efficacy studies with multiple drugs, PDXs from passage 2-4 were minced into 1 mm^3 sections and injected subcutaneously into multiple mice. […] G/C combination chemotherapy consisted of the simultaneous administration of both drugs using the schema described above. Tumor growth was assessed by measuring palpable tumors with a caliper and calculating tumor volume. […] DNA was isolated using a modified Wizard procedure (Promega), quantitated by spectrophotometry, and then stored frozen at −20° C. until AMS analysis. […] Primary tumor tissue from four bladder cancer patients were implanted in NSG mice to create the PDX models described in Table 5. […] Of the four distinct tumors tested in the PDX model, three were resistance to cisplatin (BL0269, BL0293, BL0645) and two were resistance to gemcitabine (BL0269, BL0645) as single agent therapies.

PDX Model BL0293 [2] = test: PDX tumor growth under chemotherapy; type: in vivo, NSG mice; conditions: cisplatin 2 mg/kg IV Q7Dx3, gemcitabine 150 mg/kg IP Q7Dx4
Experimental: as §1

PDX Model BL0269 [3] = test: PDX tumor growth under chemotherapy; type: in vivo, NSG mice; conditions: cisplatin 2 mg/kg IV Q7Dx3, gemcitabine 150 mg/kg IP Q7Dx4
Experimental: as §1

PDX Model BL0440 [4] = test: PDX tumor growth under chemotherapy; type: in vivo, NSG mice; conditions: cisplatin 2 mg/kg IV Q7Dx3, gemcitabine 150 mg/kg IP Q7Dx4
Experimental: as §1

PDX Model BL0293 [5] = test: drug-DNA adducts in PDX tumor by AMS; type: in vivo, NSG mice; conditions: microdose 0.092 mg/kg gemcitabine, 24 h
From the text: (§2) Female NSG mice (5-8 weeks of age, body weight: 20 to 25 g) were obtained from Jackson Laboratories (CA, USA). All animals were kept under pathogen-free conditions and were allowed to acclimatize for at least 4 days prior to any experiments. PDX models bearing the indicated patient derived xenografts were created by subcutaneous injection at the flank of 1 mm^3 tumor tissue. To establish multiple PDXs to allow efficacy studies with multiple drugs, PDXs from passage 2-4 were minced into 1 mm^3 sections and injected subcutaneously into multiple mice. At least 3 mice were used for each treatment group. Tumors were allowed to grow to at about 100 mm^3 before being assessed for drug sensitivity or the induction of DNA adducts by the administration of a microdose or a therapeutic dose of labeled drug. To assess tumor response to chemotherapy, cisplatin was administered at 2 mg/kg IV every 7 days for a total of 3 cycles, or gemcitabine was administered at 150 mg/kg IP every 7 days for a total of 4 cycles. G/C combination chemotherapy consisted of the simultaneous administration of both drugs using the schema described above. Tumor growth was assessed by measuring palpable tumors with a caliper and calculating tumor volume. Drug-DNA adduct frequencies were measured in tumor tissue collected 24 hours after intravenous injection of labeled drug and stored at −80° C. until DNA isolation. DNA was isolated using a modified Wizard procedure (Promega), quantitated by spectrophotometry, and then stored frozen at −20° C. until AMS analysis. Ten micrograms of DNA per sample was converted to graphite and measured by AMS for 14C quantification as previously described.
(§3) NSG mice bearing the indicated PDX tumors were injected with a microdose of ^14C-labeled carboplatin (FIG. 22A) or ^14C-labeled gemcitabine (FIG. 22B). The microdose of ^14C-labeled carboplatin was 0.375 mg/kg carboplatin, 50,000 dpm/g. The microdose of ^14C-labeled gemcitabine was 0.092 mg/kg gemcitabine, 1000 dpm/g. The doses of each drug administered to the mice were chosen to target 1 μM in plasma concentration of carboplatin and 0.3 μM in plasma concentration of gemcitabine. These plasma concentrations represent 1% of the approximate peak plasma concentration during human chemotherapy. Animals were sacrificed after 24 h and drug-DNA adduct frequency was determined from collected tumor tissue by AMS measurements of ^14C in tumor DNA. Carboplatin DNA-adduct levels correlate with PDX model sensitivity to cisplatin at 24 h after microdosing (FIG. 22A). Gemcitabine DNA-adduct levels correlate with PDX model sensitivity to gemcitabine at 24 h after microdosing (FIG. 22B). […] There is no significant difference in carboplatin-DNA monoadduct levels between the three resistant PDX models. […]

PDX Model BL0440 [6] = test: drug-DNA adducts in PDX tumor by AMS; type: in vivo, NSG mice; conditions: microdose 0.092 mg/kg gemcitabine, 24 h
From the text: as §2, §3

[7] = test system: 5637 and 5637R cell lines; test: gemcitabine incorporation into DNA by AMS; type: cell-based, human
Experimental: The two cell lines were cultured as described above in Example 11. [^14C]Gemcitabine (FIG. 19) was labeled at position 2 (on the aromatic nucleobase) with a specific activity of 58.8 mCi/mmol (purchased from Moravek Biochemical). Unlabeled gemcitabine (USP Pharmaceutical Grade) was mixed with the labeled gemcitabine to achieve the correct specific activity for this experiment. […] This microdose is approximately 0.1% of a therapeutically relevant concentration. Cells were sampled for DNA extraction and AMS analysis of ^14C in DNA over 24 hours.

PDX Model BL0645 [8] = test: drug-DNA adducts in PDX tumor by AMS; type: in vivo, NSG mice; conditions: 24 h
From the text: as §2
(§4) NSG mice bearing the indicated PDX tumors were injected with a microdose of ^14C-labeled carboplatin (FIG. 22A) or ^14C-labeled gemcitabine (FIG. 22B). The microdose of ^14C-labeled carboplatin was 0.375 mg/kg carboplatin, 50,000 dpm/g. The microdose of ^14C-labeled gemcitabine was 0.092 mg/kg gemcitabine, 1000 dpm/g. The doses of each drug administered to the mice were chosen to target 1 μM in plasma concentration of carboplatin and 0.3 μM in plasma concentration of gemcitabine. These plasma concentrations represent 1% of the approximate peak plasma concentration during human chemotherapy. Animals were sacrificed after 24 h and drug-DNA adduct frequency was determined from collected tumor tissue by AMS measurements of ^14C in tumor DNA. Carboplatin DNA-adduct levels correlate with PDX model sensitivity to cisplatin at 24 h after microdosing (FIG. 22A). Gemcitabine DNA-adduct levels correlate with PDX model sensitivity to gemcitabine at 24 h after microdosing (FIG. 22B). […] There is no significant difference in carboplatin-DNA monoadduct levels between the three resistant PDX models. […] We conclude that microdose induced carboplatin-DNA monoadducts predicts sensitivity to cisplatin chemotherapy, and microdose induced gemcitabine incorporation predicts sensitivity to gemcitabine chemotherapy.
(§5) In this example we test whether gemcitabine/carboplatin (G/Carbo) combination therapy has an effect on the formation of drug-DNA adducts in this synergistic tumor model. In FIG. 23A, NGS mice bearing BL0645 xenographs were administered via tail vein injection a therapeutic dose of [^14C]carboplatin alone or a therapeutic dose of [^14C]carboplatin in combination with a therapeutic dose of gemcitabine. Carboplatin-DNA monoadducts were measured in tumor tissue 24 h after dosing. A therapeutic dose of the combination [^14C]carboplatin plus unlabeled gemcitabine leads to a significant increase in carboplatin-DNA monoadduct level (94.84±16.02 versus 209.6±64.66 adducts per 10^8 nucleotides, p=0.032) compared to treatment with carboplatin alone. In FIG. 23B, the same experiment was conducted in which the mice received a therapeutic dose of [^14C]gemcitabine alone or a therapeutic dose of [^14C]gemcitabine in combination with a therapeutic dose of unlabeled carboplatin. […]

PDX Model BL0269 [9] = test: drug-DNA adducts in PDX tumor by AMS; type: in vivo, NSG mice
From the text: as §2, §4, §5

[10] = IV dose of 1000 mg/m^2 over 30 minutes; cited from earlier work
J82 = test: MTT assay IC50, bladder cancer cell line; type: cell-based
From the text: (§6) If these diadducts are the predominant DNA lesion responsible for cell death, then the IC50 of the two drugs should be linearly related. Thus, we measured the IC50 of the six NSCLC cell lines from Example 2 to both cisplatin and carboplatin to determine if the sensitivity of these six NSCLC cell lines to the two drugs are correlated. We observed a statistically significant linear correlation of the cytotoxicity of these two drugs in the 6 cell lines used in this study (R^2=0.72, p=0.033, FIG. 9A) and also to six additional ATCC bladder cancer cell lines. (R^2=0.72, p=0.033), FIG. 9B).

RT4 = test: MTT assay IC50, bladder cancer cell line; type: cell-based
From the text: as §6

T24 = test: MTT assay IC50, bladder cancer cell line; type: cell-based
From the text: as §6

HT1197 = test: MTT assay IC50, bladder cancer cell line; type: cell-based
From the text: as §6

TCCSUP = test: MTT assay IC50, bladder cancer cell line; type: cell-based
From the text: as §6

H1975 = test: MTT assay IC50; type: cell-based, human
Experimental: (§7) Six non-small cell lung cancer (NSCLC) cell lines were treated in culture with [^14C]carboplatin. Carboplatin-DNA monoadduct levels over time were determined by measuring ^14C content in genomic DNA with accelerator mass spectrometry (AMS). Cellular sensitivity to carboplatin and cisplatin was analyzed by the MTT assay (Henderson et al., International Journal of Cancer 2011).
(§8) Human NSCLC cell lines H23, H460, H727, HCC827, H1975, and A549 were purchased from ATCC and were cultured with the recommended medium. The MTT assay was performed as previously reported to determine the drug concentration required to inhibit cell growth by 50% (IC50) of cisplatin and carboplatin. [^14C]Carboplatin (at 53 mCi/mmol) was mixed with unlabeled carboplatin to achieve the specific activities required for microdoses and therapeutic doses. Table 1 lists the six NSCLC cell lines and summarizes their IC50 characteristics, induced carboplatin-DNA monoadducts when treated with [^14C]carboplatin, and p and r^2 values for correlation analysis to the IC50 concentrations.

H460 = test: MTT assay IC50; type: cell-based, human
Experimental: as §7, §8

H727 = test: MTT assay IC50; type: cell-based, human
Experimental: as §7, §8

HCC827 = test: MTT assay IC50; type: cell-based, human
Experimental: as §7, §8

H23 = test: MTT assay IC50; type: cell-based, human
Experimental: as §7, §8

5637R = test: MTT assay IC50, oxaliplatin-resistant bladder cancer sub-line; type: cell-based, human; conditions: 5637R, 72 hours
Experimental: Drug-DNA adduct formation and repair was measured by accelerator mass spectrometry.
To confirm that 5637 was the original ATCC cell line, and that 5637R originated from the parental 5637 cell line, both cultures were sent to the ATCC Cell Line Authentication Service for cell verification per the ATCC protocol. More specifically, fifteen short tandem repeat (STR) loci plus the gender determining locus, amelogenin, were amplified using the commercially available PowerPlex® 16HS Kit from Promega.
These two cell lines were also cultured with a range of concentrations of cisplatin, carboplatin, gemcitabine, doxorubicin, methotrexate and vinblastine for 72 hours to determine IC50 for these other drugs (FIG. 16C). These drugs were chosen because of their frequent use in the treatment of bladder cancer.

For Nc1ccn([C@@H]2O[C@H](CO)[C@@H](O)C2(F)F)c(=O)n1 [gemcitabine], the “Xenograph Sensitivity” value (PDX Model BL0645 [1]) was “RES”, the “Xenograph Sensitivity” value (PDX Model BL0293 [2]) was “SEN” and the “Xenograph Sensitivity” value (PDX Model BL0269 [3]) was “RES”. For the same compound, the “Xenograph Sensitivity” value (PDX Model BL0440 [4]) was “SEN”, the gemcitabine adduct levels (PDX Model BL0293 [5]) was 10.0±5.92 and the gemcitabine adduct levels (PDX Model BL0440 [6]) was 13.1±10.2. For the same compound, the “gemcitabine incorporation in 5637R compared to parental 5637 cells” value ([7]; 0.03 μM 4 hours, at 24 hours) was “much lower gemcitabine incorporation”, the “cytotoxicity of subtherapeutic dose” value ([7]; 0.03 μM for 4 hours) was “no cytotoxicity” and the gemcitabine adducts (PDX Model BL0645 [8]; microdose 0.092 mg/kg gemcitabine alone or with carboplatin 0.375 mg/kg) was 2.44±0.880 adducts per 10^8 nucleotides. The gemcitabine adduct level (PDX Model BL0645 [8]; therapeutic 9.2 mg/kg gemcitabine alone or with carboplatin 37.5 mg/kg) was 169.2±9.129 adducts per 10^8 nucleotides, the gemcitabine-DNA adduct levels (PDX Model BL0269 [9]; control experiment FIG. 23F, microdose single agent or G/Carbo combination) was 2.44±0.492 adducts per 10^8 nucleotides and the gemcitabine adduct levels (PDX Model BL0269 [9]; microdose 0.092 mg/kg gemcitabine, 24 h (FIG. 22B)) was 3.17±0.278. The plasma concentration [10] was “about 30 μM” and the plasma half-life [10] was “about 60 minutes”.
For N.N.[Cl][Pt][Cl] [cisplatin], the “Xenograph Sensitivity” value (PDX Model BL0645 [1]) was “RES”, the “Xenograph Sensitivity” value (PDX Model BL0293 [2]) was “RES” and the “Xenograph Sensitivity” value (PDX Model BL0269 [3]) was “RES”. The “Xenograph Sensitivity” value (PDX Model BL0440 [4]) was “SEN”, the IC50 (J82) was 12.6 ± 1.17 µM and the IC50 (RT4) was 8.35 ± 0.01 µM. It also gave an IC50 (T24) of 5.28 ± 0.04 µM, an IC50 (HT1197) of 6.2 ± 0.03 µM and an IC50 (TCCSUP) of 11.7 ± 1.63 µM. For the same compound, the IC50 (H1975) was 14.5 µM, the IC50 (H460) was 3.53 µM and the IC50 (H727) was 20 µM. For the same compound, the IC50 (HCC827) was 18.2 µM, the IC50 (H23) was 4.23 µM and the IC50 (5637R) was 2.99 µM.
